Blank lines part the entries; values can stand above or below the compound they belong to.
Assays:
[1] = tested on: MIA PaCa-2 cells; test: Gemcitabine combination cell assay; assay type: cell-based
Method: Exponentially growing MIA PaCa-2 (ATCC CRL-1420) cells are treated with trypsin to remove cells from the plate surface. Approximately 10,000 cells/well are plated in 96 well plates in RPMI containing 10% fetal bovine serum, 1% sodium pyruvate and 1% L-GlutaMax. Cells are allowed to adhere to the plate surface overnight. Serial half-log dilutions of Chk1 inhibitor test compounds and gemcitabine are made with a final highest concentration of 3000 nM and 100 nM, respectively. Chk1 inhibitors and gemcitabine are combined so that each concentration of Chk1 inhibitor is added to each concentration of gemcitabine. Each drug is also tested as a single agent. Drugs are added to adherent cells (in duplicate) and incubated for 72h. At 72h the cells are treated with Promega Cell Titer Glo reagent for approximately 15 minutes. Luminescence (relative light units, RLU) is recorded using a BMG Polarstar Omega plate reader. The single agent concentration that results in a 50% reduction in total signal (IC50) is calculated using PRISM software and a four-parameter non-linear regression curve fit. For combination studies the RLUs are plotted using PRISM on an XY plot with the gemcitabine concentration on the X axis and RLU on the Y axis. The RLU for each concentration of Chk1 inhibitor is plotted as a function of gemcitabine concentration. The IC50 for gemcitabine alone and at each concentration of Chk1 is determined using a four-parameter non-linear regression curve fit. The approximate concentration of Chk1 inhibitor that results in a two and ten-fold reduction in the IC50 of gemcitabine alone is calculated as an indication of synergistic potency.

[2] = Solubility of the salts in biorelevant media; assay type: physicochemical; settings: 25° C., 24 h, HPLC; for solubility FaSSGF (pH 1.37): Fasted State Simulated Gastric Fluid; for solubility FaSSIF (pH 6.71): Fasted State Simulated Intestinal Fluid; for solubility FeSSIF (pH 5.14): Fed State Simulated Intestinal Fluid
Method: Biorelevant media (DI H2O, FeSSIF, FaSSIF and FaSSGF) (2 mL) was charged. Samples were left to equilibrate (25° C.) over 24 h. Solubility measurements were taken using HPLC (see Method 1 above).

[3] = Gravimetric vapour sorption (GVS); assay type: physicochemical; settings: for GVS weight loss, initial desorption cycle: from 50% RH to 0% RH; for GVS weight loss, initial desorption cycle / GVS water gain, subsequent sorption cycle: 25° C.; for GVS water gain, subsequent sorption cycle: up to 90% RH
Method: Sorption isotherms were obtained using a Hiden Isochema moisture sorption analyser (model IGAsorp), controlled by IGAsorp Systems Software V6.50.48. The sample was maintained at a constant temperature (25° C.) by the instrument controls. The humidity was controlled by mixing streams of dry and wet nitrogen, with a total flow of 250 ml·min−. The instrument was verified for relative humidity (RH) content by measuring three calibrated Rotronic salt solutions (10-50-88%). The weight change of the sample was monitored as a function of humidity by a microbalance (accuracy+/−0.005 mg). A defined amount of sample was placed in a tared mesh stainless steel basket under ambient conditions. A full experimental cycle typically consisted of three scans (sorption, desorption and sorption) at a constant temperature (25° C.) and 10% RH intervals over a 0-90% range (60 minutes for each humidity level).

[4] = Two-week stability (HPLC purity); assay type: physicochemical
Method: HPLC analysis was carried out on an Agilent 1110/1200 series HPLC system. The column used was an Triart C18; 150×4.6 mm, 3.0 μm particle size (Ex Waters, PN: 186004644). The flow rate was 1.0 mL/min. Mobile phase A was Water:Trifluoroacetic acid (100:0.1%) and mobile phase B was Acetonitrile:Trifluoroacetic acid (100:0.1%). Detection was by UV at 302 nm. The injection volume was 5 μL, column temperature 40° C. and the following gradient was used: […]
Experimental: Maleate salt pattern B (30 mg) was placed into separate 15 mL type I glass vials. To these vials, a HDPE plastic cap was loosely attached to allow the ingress of moisture. The vials were then placed into ICH rated stability cabinets at 25° C./60% RH and 40° C./75% RH and in cold storage at 2-8° C. Following 2 weeks of storage these samples were removed from the stability cabinets and cold storage and the chemical purity assessed by HPLC (method 2). The relevant data was collected using a wavelength of 302 nm. The samples were prepared in MeCN:water (1:1).

[5] = Dynamic vapour sorption (DVS) analysis of maleate salt Pattern B; assay type: physicochemical
Method: A defined amount of the maleate salt Pattern B was placed in a tared mesh stainless steel basket under ambient conditions. A full experimental cycle consisted of […] (desorption, sorption repeat and desorption) at a constant temperature (25° C.) and 10% RH intervals over a 0-90% range (60 minutes for each humidity level).
Post cycle, the material was isolated at 0% RH and tested for crystallinity and then held at 90% RH for a minimum of 3 hours and re-tested for changes in crystallinity.

IC50 ([1]; Homo sapiens, compound alone, MIA PaCa-2 cells, 72h, Cell Titer Glo, read-out: Chk1 IC50): 144 nM | solubility FaSSGF (pH 1.37) ([2]; listed as free base): 2.93 mg/mL | solubility FaSSIF (pH 6.71) ([2]; listed as free base): 0.04 mg/mL | solubility FeSSIF (pH 5.14) ([2]; listed as free base): 0.6 mg/mL | GVS weight loss, initial desorption cycle ([3]; listed as free base): 2 wt % | GVS water gain, subsequent sorption cycle ([3]; listed as free base): 8% | Aqueous solubility mg/mL 24 h: 0.39 mg/mL
Compound: COc1cc(C2(F)CCN(C)CC2)ccc1-c1cc(Nc2cnc(C#N)cn2)n[nH]1 [compound of formula (1), 5-[[5-[4-(4-fluoro-1-methyl-4-piperidyl)-2-methoxy-phenyl]-1H-pyrazol-3-yl]amino]pyrazine-2-carbonitrile]
10 × LS ([1]; approximate concentration giving a 10-fold reduction in the IC50 of gemcitabine alone, MIA PaCa-2, 72h): ~100 nM | 2 × LS ([1]; approximate concentration giving a two-fold reduction in the IC50 of gemcitabine alone, MIA PaCa-2, 72h): ~3 nM

solubility FaSSGF (pH 1.37) [2]: 3.97 mg/mL | solubility FaSSIF (pH 6.71) [2]: 0.07 mg/mL | solubility FeSSIF (pH 5.14) [2]: 0.57 mg/mL | HPLC purity (HPLC method 2) ([4]; T = 0): 96.85 | HPLC purity (HPLC method 2) ([4]; T = 2 weeks, 2-8° C.): 96.85 | HPLC purity (HPLC method 2) ([4]; T = 2 weeks, 25° C./60% RH): 96.99 | HPLC purity (HPLC method 2) ([4]; T = 2 weeks, 40° C./75% RH): 96.98 | stability on storage ([4]; two weeks at 25° C./60% RH, 40° C./75% RH and 2-8° C., result in words): stable | GVS weight loss, initial desorption cycle [3]: 2.5 wt % | GVS water gain, subsequent sorption cycle [3]: 4% | DVS moisture associated before the first desorption ([5]; 25° C., ambient start): ca. 2.8 wt % | DVS main increase in weight, first sorption ([5]; between 20 and 30% RH): ca. 2 wt % | Aqueous solubility mg/mL 24 h: 1.4 mg/mL
Compound: COc1cc(C2(F)CCN(C)CC2)ccc1-c1cc(Nc2cnc(C#N)cn2)n[nH]1 [maleate pattern B, 5-[[5-[4-(4-fluoro-1-methyl-4-piperidyl)-2-methoxy-phenyl]-1H-pyrazol-3-yl]amino]pyrazine-2-carbonitrile]
crystalline form (XRPD) after GVS at extremes of humidity ([3]; 0% RH and 90% RH, result in words): 0% RH converts to pattern A, 90% RH no change | crystalline form (XRPD) after DVS ([5]; isolated at 0% RH, then held at 90% RH, result in words): mixed phase at 0% RH and pattern B at 90% RH

From US20240360101A1, “PHARMACEUTICAL SALTS OF A CHK-1 INHIBITOR” (SENTINEL ONCOLOGY LIMITED, priority 2021, published 2024)
